From patent US8449898B2 (priority 2007, dated 2013)
Read-outs that look alike come from different tables or passages of the source.

Columns and labels:
[1] = test system: Phytophthora infestans (the causal agent of tomato late blight); test: whole plant or invertebrate; assay type: in vivo
[2] = test system: Pseudoperonospora cubensis (the causal agent of cucumber downy mildew); test: Test B: cucumber downy mildew, preventive spray on cucumber seedlings; assay type: in vivo
[3] = Phytophthora infestans, read-out: TLB Obsd (observed effect, tomato late blight), component (b) alone, 0.08 ppm
[4] = Phytophthora infestans, read-out: TLB Obsd (observed effect, tomato late blight), component (b) alone, 0.4 ppm
[5] = Phytophthora infestans, read-out: TLB Obsd (observed effect, tomato late blight), component (b) alone, 2 ppm
[6] = Phytophthora infestans, read-out: TLB Obsd (observed effect, tomato late blight), component (b) alone, 10 ppm
[7] = Phytophthora infestans, read-out: TLB Obsd (observed effect, tomato late blight), component (b) alone, 40 ppm
[8] = Pseudoperonospora cubensis, component (b) alone, 0.08 ppm, read-out: CDM Obsd (observed effect, cucumber downy mildew)
[9] = Pseudoperonospora cubensis, component (b) alone, 0.4 ppm, read-out: CDM Obsd (observed effect, cucumber downy mildew)
[10] = Pseudoperonospora cubensis, component (b) alone, 2 ppm, read-out: CDM Obsd (observed effect, cucumber downy mildew)
[11] = Pseudoperonospora cubensis, component (b) alone, 10 ppm, read-out: CDM Obsd (observed effect, cucumber downy mildew)
[12] = Pseudoperonospora cubensis, component (b) alone, 40 ppm, read-out: CDM Obsd (observed effect, cucumber downy mildew)
[13] = Table D, component (b) alone at 2 ppm
[14] = Table D, component (b) alone at 10 ppm
[15] = Table D, component (b) alone at 40 ppm
[16] = Table D, component (b) alone at 200 ppm
[17] = Table D, component (b) alone at 500 ppm
[18] = component (b) alone 2 ppm (Compound 1 0 ppm)
[19] = component (b) alone 10 ppm (Compound 1 0 ppm)
[20] = Pseudoperonospora cubensis, component (b) alone 0.08 ppm (Compound 1 0 ppm), read-out: CDM Obsd
[21] = Pseudoperonospora cubensis, component (b) alone 0.4 ppm (Compound 1 0 ppm), read-out: CDM Obsd
[22] = Pseudoperonospora cubensis, component (b) alone 2 ppm (Compound 1 0 ppm), read-out: CDM Obsd
[23] = Pseudoperonospora cubensis, component (b) alone 10 ppm (Compound 1 0 ppm), read-out: CDM Obsd

N#Cc1c(Cl)c(Cl)c(Cl)c(C#N)c1Cl [chlorothalonil]
pest or weed control at 0.08 ppm [1, 3]: 14%
pest or weed control at 0.4 ppm [1, 4]: 14%
pest or weed control at 2 ppm [1, 5]: 21%
pest or weed control at 10 ppm [1, 6]: 100%
pest or weed control at 40 ppm [1, 7]: 100%
pest or weed control at 0.016 ppm ([1]; Phytophthora infestans, read-out: TLB Obsd, Table E, component (b) alone at 0.016 ppm): 31%
pest or weed control at 0.08 ppm ([1]; Phytophthora infestans, read-out: TLB Obsd, Table E, component (b) alone at 0.08 ppm): 0%
pest or weed control at 0.4 ppm ([1]; Phytophthora infestans, read-out: TLB Obsd, Table E, component (b) alone at 0.4 ppm): 73%
pest or weed control at 2 ppm ([1]; Phytophthora infestans, read-out: TLB Obsd, Table E, component (b) alone at 2 ppm): 100%
pest or weed control at 10 ppm ([1]; Phytophthora infestans, read-out: TLB Obsd, Table E, component (b) alone at 10 ppm): 100%
pest or weed control at 0.016 ppm ([2]; Pseudoperonospora cubensis, Table F, component (b) alone at 0.016 ppm, read-out: CDM Obsd): 47%
pest or weed control at 0.08 ppm ([2]; Pseudoperonospora cubensis, Table F, component (b) alone at 0.08 ppm, read-out: CDM Obsd): 33%
pest or weed control at 0.4 ppm ([2]; Pseudoperonospora cubensis, Table F, component (b) alone at 0.4 ppm, read-out: CDM Obsd): 47%
pest or weed control at 2 ppm ([2]; Pseudoperonospora cubensis, Table F, component (b) alone at 2 ppm, read-out: CDM Obsd): 99%
pest or weed control at 10 ppm ([2]; Pseudoperonospora cubensis, Table F, component (b) alone at 10 ppm, read-out: CDM Obsd): 100%
pest or weed control at 0.08 ppm [2, 8]: 0%
pest or weed control at 0.4 ppm [2, 9]: 0%
pest or weed control at 2 ppm [2, 10]: 0%
pest or weed control at 10 ppm [2, 11]: 70%
pest or weed control at 40 ppm [2, 12]: 71%

[Cu+2].[OH-].[OH-] [copper hydroxide]
TLB Obsd [1, 13]: 32%
TLB Obsd [1, 14]: 48%
TLB Obsd [1, 15]: 40%
TLB Obsd [1, 16]: 70%
TLB Obsd [1, 17]: 91%
TLB Obsd (observed effect, tomato late blight) ([1]; component (b) alone, 2 ppm): 22
TLB Obsd (observed effect, tomato late blight) ([1]; component (b) alone, 10 ppm): 36
TLB Obsd (observed effect, tomato late blight) ([1]; component (b) alone, 40 ppm): 50
TLB Obsd (observed effect, tomato late blight) ([1]; component (b) alone, 200 ppm): 71
TLB Obsd (observed effect, tomato late blight) ([1]; component (b) alone, 500 ppm): 77
CDM Obsd [2, 13]: 53%
CDM Obsd [2, 14]: 63%
CDM Obsd [2, 15]: 85%
CDM Obsd [2, 16]: 85%
CDM Obsd [2, 17]: 88%
CDM Obsd [2, 18]: 47%
CDM Obsd [2, 19]: 47%
CDM Obsd ([2]; component (b) alone 40 ppm (Compound 1 0 ppm)): 47%
CDM Obsd ([2]; component (b) alone 200 ppm (Compound 1 0 ppm)): 85%
CDM Obsd ([2]; component (b) alone 500 ppm (Compound 1 0 ppm)): 93%
CDM Obsd (observed effect, cucumber downy mildew) ([2]; component (b) alone, 2 ppm): 0
CDM Obsd (observed effect, cucumber downy mildew) ([2]; component (b) alone, 10 ppm): 0
CDM Obsd (observed effect, cucumber downy mildew) ([2]; component (b) alone, 40 ppm): 0
CDM Obsd (observed effect, cucumber downy mildew) ([2]; component (b) alone, 200 ppm): 29
CDM Obsd (observed effect, cucumber downy mildew) ([2]; component (b) alone, 500 ppm): 37

Cc1ccc(-c2c(Cl)nc(C#N)n2S(=O)(=O)N(C)C)cc1 [cyazofamid]
pest or weed control at 0.016 ppm ([1]; Phytophthora infestans, read-out: TLB Obsd, component (b) alone, 0.016 ppm): 25%
pest or weed control at 0.08 ppm ([1]; Phytophthora infestans, read-out: TLB Obsd, component (b) alone, 0.08 ppm): 52%
pest or weed control at 0.4 ppm ([1]; Phytophthora infestans, read-out: TLB Obsd, component (b) alone, 0.4 ppm): 58%
pest or weed control at 2 ppm ([1]; Phytophthora infestans, read-out: TLB Obsd, component (b) alone, 2 ppm): 100%
pest or weed control at 10 ppm ([1]; Phytophthora infestans, read-out: TLB Obsd, component (b) alone, 10 ppm): 100%
pest or weed control at 0.016 µg/mL ([2]; Pseudoperonospora cubensis, component (b) alone 0.016 ppm (Compound 1 0 ppm), read-out: CDM Obsd): 47%
pest or weed control at 0.08 µg/mL [2, 20]: 100%
pest or weed control at 0.4 µg/mL [2, 21]: 100%
pest or weed control at 2 µg/mL [2, 22]: 100%
pest or weed control at 10 µg/mL [2, 23]: 100%
pest or weed control at 0.016 ppm ([2]; Pseudoperonospora cubensis, component (b) alone, 0.016 ppm, read-out: CDM Obsd): 43%
pest or weed control at 0.08 ppm ([2]; Pseudoperonospora cubensis, component (b) alone, 0.08 ppm, read-out: CDM Obsd): 57%
pest or weed control at 0.4 ppm ([2]; Pseudoperonospora cubensis, component (b) alone, 0.4 ppm, read-out: CDM Obsd): 100%
pest or weed control at 2 ppm ([2]; Pseudoperonospora cubensis, component (b) alone, 2 ppm, read-out: CDM Obsd): 100%
pest or weed control at 10 ppm ([2]; Pseudoperonospora cubensis, component (b) alone, 10 ppm, read-out: CDM Obsd): 100%

CCNC(=O)NC(=O)/C(C#N)=N/OC [cymoxanil]
pest or weed control at 0.4 ppm ([1]; Phytophthora infestans, read-out: TLB Obsd (disease control rating), Table A, component (b) alone 0.4 ppm): 9%
pest or weed control at 2 ppm ([1]; Phytophthora infestans, read-out: TLB Obsd (disease control rating), Table A, component (b) alone 2 ppm): 76%
pest or weed control at 10 ppm ([1]; Phytophthora infestans, read-out: TLB Obsd (disease control rating), Table A, component (b) alone 10 ppm): 100%
pest or weed control at 40 ppm ([1]; Phytophthora infestans, read-out: TLB Obsd (disease control rating), Table A, component (b) alone 40 ppm): 100%
pest or weed control at 200 ppm ([1]; Phytophthora infestans, read-out: TLB Obsd (disease control rating), Table A, component (b) alone 200 ppm): 100%
pest or weed control at 0.04 ppm ([1]; Phytophthora infestans, read-out: TLB Obsd (observed effect, tomato late blight), component (b) alone, 0.04 ppm): 44%
pest or weed control at 2 ppm [1, 5]: 46%
pest or weed control at 10 ppm [1, 6]: 100%
pest or weed control at 40 ppm [1, 7]: 100%
pest or weed control at 200 ppm ([1]; Phytophthora infestans, read-out: TLB Obsd (observed effect, tomato late blight), component (b) alone, 200 ppm): 100%
pest or weed control at 0.4 ppm ([2]; Pseudoperonospora cubensis, Table A, component (b) alone 0.4 ppm, read-out: CDM Obsd (disease control rating)): 47%
pest or weed control at 2 ppm ([2]; Pseudoperonospora cubensis, Table A, component (b) alone 2 ppm, read-out: CDM Obsd (disease control rating)): 47%
pest or weed control at 10 ppm ([2]; Pseudoperonospora cubensis, Table A, component (b) alone 10 ppm, read-out: CDM Obsd (disease control rating)): 47%
pest or weed control at 40 ppm ([2]; Pseudoperonospora cubensis, Table A, component (b) alone 40 ppm, read-out: CDM Obsd (disease control rating)): 47%
pest or weed control at 200 ppm ([2]; Pseudoperonospora cubensis, Table A, component (b) alone 200 ppm, read-out: CDM Obsd (disease control rating)): 47%
pest or weed control at 0.4 ppm ([2]; Pseudoperonospora cubensis, Table G, component (b) alone at 0.4 ppm, read-out: CDM Obsd): 26%
pest or weed control at 2 ppm ([2]; Pseudoperonospora cubensis, Table G, component (b) alone at 2 ppm, read-out: CDM Obsd): 26%
pest or weed control at 10 ppm ([2]; Pseudoperonospora cubensis, Table G, component (b) alone at 10 ppm, read-out: CDM Obsd): 26%
pest or weed control at 40 ppm ([2]; Pseudoperonospora cubensis, Table G, component (b) alone at 40 ppm, read-out: CDM Obsd): 26%
pest or weed control at 200 ppm ([2]; Pseudoperonospora cubensis, Table G, component (b) alone at 200 ppm, read-out: CDM Obsd): 26%
pest or weed control at 0.04 ppm ([2]; Pseudoperonospora cubensis, component (b) alone, 0.04 ppm, read-out: CDM Obsd (observed effect, cucumber downy mildew)): 15%
pest or weed control at 2 ppm [2, 10]: 0%
pest or weed control at 10 ppm [2, 11]: 0%
pest or weed control at 40 ppm [2, 12]: 0%
pest or weed control at 200 ppm ([2]; Pseudoperonospora cubensis, component (b) alone, 200 ppm, read-out: CDM Obsd (observed effect, cucumber downy mildew)): 21%

COc1ccc(C(=CC(=O)N2CCOCC2)c2ccc(Cl)cc2)cc1OC [dimethomorph]
pest or weed control at 0.08 ppm ([1]; Phytophthora infestans, read-out: TLB Obsd (disease control rating), Table B, component (b) alone 0.08 ppm): 9%
pest or weed control at 0.4 ppm ([1]; Phytophthora infestans, read-out: TLB Obsd (disease control rating), Table B, component (b) alone 0.4 ppm): 9%
pest or weed control at 2 ppm ([1]; Phytophthora infestans, read-out: TLB Obsd (disease control rating), Table B, component (b) alone 2 ppm): 47%
pest or weed control at 10 ppm ([1]; Phytophthora infestans, read-out: TLB Obsd (disease control rating), Table B, component (b) alone 10 ppm): 86%
pest or weed control at 40 ppm ([1]; Phytophthora infestans, read-out: TLB Obsd (disease control rating), Table B, component (b) alone 40 ppm): 99%
pest or weed control at 0.08 ppm [1, 3]: 31%
pest or weed control at 0.4 ppm [1, 4]: 62%
pest or weed control at 2 ppm [1, 5]: 95%
pest or weed control at 10 ppm [1, 6]: 88%
pest or weed control at 40 ppm [1, 7]: 100%
pest or weed control at 0.08 ppm ([2]; Pseudoperonospora cubensis, Table B, component (b) alone 0.08 ppm, read-out: CDM Obsd (disease control rating)): 47%
pest or weed control at 0.4 ppm ([2]; Pseudoperonospora cubensis, Table B, component (b) alone 0.4 ppm, read-out: CDM Obsd (disease control rating)): 57%
pest or weed control at 2 ppm ([2]; Pseudoperonospora cubensis, Table B, component (b) alone 2 ppm, read-out: CDM Obsd (disease control rating)): 70%
pest or weed control at 10 ppm ([2]; Pseudoperonospora cubensis, Table B, component (b) alone 10 ppm, read-out: CDM Obsd (disease control rating)): 100%
pest or weed control at 40 ppm ([2]; Pseudoperonospora cubensis, Table B, component (b) alone 40 ppm, read-out: CDM Obsd (disease control rating)): 100%
pest or weed control at 0.08 µg/mL [2, 20]: 26%
pest or weed control at 0.4 µg/mL [2, 21]: 26%
pest or weed control at 2 µg/mL [2, 22]: 83%
pest or weed control at 10 µg/mL [2, 23]: 100%
pest or weed control at 40 µg/mL ([2]; Pseudoperonospora cubensis, component (b) alone 40 ppm (Compound 1 0 ppm), read-out: CDM Obsd): 100%
pest or weed control at 0.08 ppm [2, 8]: 52%
pest or weed control at 0.4 ppm [2, 9]: 54%
pest or weed control at 2 ppm [2, 10]: 88%
pest or weed control at 10 ppm [2, 11]: 100%
pest or weed control at 40 ppm [2, 12]: 100%

CCNc1nc(CC)c(C(=O)NC(C#N)c2cccs2)s1 (centres unmarked) [ethaboxam]
TLB Obsd ([1]; component (b) alone, 0.016 ppm): 22%
TLB Obsd ([1]; component (b) alone, 0.08 ppm): 15%
TLB Obsd ([1]; component (b) alone, 0.4 ppm): 95%
TLB Obsd ([1]; component (b) alone, 2 ppm): 87%
TLB Obsd ([1]; component (b) alone, 10 ppm): 100%
CDM Obsd ([2]; component (b) alone 0.016 ppm (Compound 1 0 ppm)): 47%
CDM Obsd ([2]; component (b) alone 0.08 ppm (Compound 1 0 ppm)): 47%
CDM Obsd ([2]; component (b) alone 0.4 ppm (Compound 1 0 ppm)): 47%
CDM Obsd [2, 18]: 82%
CDM Obsd [2, 19]: 100%
CDM Obsd ([2]; component (b) alone, 0.016 ppm): 0%
CDM Obsd ([2]; component (b) alone, 0.08 ppm): 0%
CDM Obsd ([2]; component (b) alone, 0.4 ppm): 41%
CDM Obsd ([2]; component (b) alone, 2 ppm): 100%
CDM Obsd ([2]; component (b) alone, 10 ppm): 100%
